Source: PubChem BioAssay (NCI)
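These data come from cells grown in 96-well plates and exposed to compound for 48 hours at five concentrations. GI50 is the concentration that inhibits growth by half. TGI is the concentration that stops growth completely.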

How the values were obtained:
Assay in all cases: inhibition of tumour cell growth, NCI panel, 48 h
EKVX NSCLC = test system: EKVX NSCLC
SF-539 CNS = test system: SF-539 CNS
SN12C renal = test system: SN12C renal
SK-MEL-5 melanoma = test system: SK-MEL-5 melanoma
UACC-62 melanoma = test system: UACC-62 melanoma
786-0 renal = test system: 786-0 renal
BT-549 breast = test system: BT-549 breast
M14 melanoma = test system: M14 melanoma
OVCAR-8 ovarian = test system: OVCAR-8 ovarian
A549 NSCLC = test system: A549 NSCLC
IGROV1 ovarian = test system: IGROV1 ovarian
PC-3 prostate = test system: PC-3 prostate
SK-OV-3 ovarian = test system: SK-OV-3 ovarian
K-562 leukemia = test system: K-562 leukemia
CCRF-CEM leukemia = test system: CCRF-CEM leukemia
NCI/ADR-RES ovarian = test system: NCI/ADR-RES ovarian
OVCAR-3 ovarian = test system: OVCAR-3 ovarian
RXF 393 renal = test system: RXF 393 renal
OVCAR-4 ovarian = test system: OVCAR-4 ovarian
NCI-H460 lung = test system: NCI-H460 lung
T-47D breast = test system: T-47D breast
UACC-257 melanoma = test system: UACC-257 melanoma
HOP-62 NSCLC = test system: HOP-62 NSCLC
UO-31 renal = test system: UO-31 renal
HT29 colon = test system: HT29 colon
LOX IMVI melanoma = test system: LOX IMVI melanoma
MDA-MB-231 breast = test system: MDA-MB-231 breast
SR leukemia = test system: SR leukemia

**Q.** What does the source list for `COc1ccc(C(=O)COc2ccc(/C=C3\COc4ccc(OC)cc4C3=O)cc2)cc1`?
**A.** TGI (EKVX NSCLC): > 100 µM; GI50 (SF-539 CNS): 25.2 µM; TGI (SF-539 CNS): 65.6 µM; GI50 (SN12C renal): 30.9 µM; TGI (SN12C renal): > 100 µM; GI50 (SK-MEL-5 melanoma): 24.6 µM; TGI (SK-MEL-5 melanoma): > 100 µM; GI50 (UACC-62 melanoma): 48.9 µM; TGI (UACC-62 melanoma): > 100 µM; GI50 (786-0 renal): 16.7 µM; TGI (786-0 renal): 37.9 µM; GI50 (BT-549 breast): 16.2 µM; TGI (BT-549 breast): 35.8 µM; GI50 (M14 melanoma): 39.7 µM; TGI (M14 melanoma): > 100 µM; GI50 (OVCAR-8 ovarian): 18.4 µM; TGI (OVCAR-8 ovarian): 66.5 µM; GI50 (A549 NSCLC): > 100 µM; TGI (A549 NSCLC): > 100 µM; GI50 (IGROV1 ovarian): 26 µM; TGI (IGROV1 ovarian): 54.7 µM; GI50 (PC-3 prostate): 12.8 µM; TGI (PC-3 prostate): 47.1 µM; GI50 (SK-OV-3 ovarian): 30.6 µM; TGI (SK-OV-3 ovarian): 81 µM; GI50 (K-562 leukemia): 4.09 µM; TGI (K-562 leukemia): 61.2 µM; GI50 (CCRF-CEM leukemia): 2.86 µM; TGI (CCRF-CEM leukemia): 10.2 µM; GI50 (NCI/ADR-RES ovarian): 12 µM; TGI (NCI/ADR-RES ovarian): 32.3 µM; GI50 (OVCAR-3 ovarian): 21 µM; TGI (OVCAR-3 ovarian): 62.2 µM; GI50 (RXF 393 renal): 21.2 µM; TGI (RXF 393 renal): 47.6 µM; GI50 (OVCAR-4 ovarian): 17.4 µM; TGI (OVCAR-4 ovarian): 69.2 µM; GI50 (NCI-H460 lung): 57.5 µM; TGI (NCI-H460 lung): > 100 µM; GI50 (T-47D breast): 19.1 µM; TGI (T-47D breast): 96.6 µM; GI50 (UACC-257 melanoma): 52.1 µM; TGI (UACC-257 melanoma): > 100 µM; GI50 (HOP-62 NSCLC): 24.8 µM; TGI (HOP-62 NSCLC): 47.7 µM; GI50 (UO-31 renal): 18.4 µM; TGI (UO-31 renal): 61.5 µM; GI50 (HT29 colon): 22.2 µM; TGI (HT29 colon): > 100 µM; GI50 (LOX IMVI melanoma): 6.59 µM; TGI (LOX IMVI melanoma): 24.2 µM; GI50 (MDA-MB-231 breast): 30 µM; TGI (MDA-MB-231 breast): 92.5 µM; GI50 (SR leukemia): 2.09 µM; TGI (SR leukemia): 5.91 µM
